From ChEMBL document CHEMBL4483862, “Open-source discovery of chemical leads for next-generation chemoprotective antimalarials” (2018)
pIC50: −log10 of the molar value.

Tested on: Plasmodium berghei
Test: Luciferase/luciferin-expressing antifolate-resistant parasites were used to infect a culture of HepG2 cells that were pre-incubated with compounds. Infected hepatocytes emit light due to the luciferase reaction. Assay results are presented as the percent inhibition of light emission compared to control. […]
Assay type: functional
Conditions: sporozoite; for IC90: read-out: LUCIFERASE INFECTION ASSAY - IC90

| SMILES | IC90 [µM] | also measured |
| --- | --- | --- |
| CCC(=O)Nc1nc(C)c(-c2csc(Nc3ccc(N(C)C)cc3)n2)s1 | > 8.52 | pIC50 (FFLUC_HILL_SLOPE 5.2, FFLUC_R_SQUARED 0.393, read-out: LUCIFERASE INFECTION ASSAY - IC50): < 5.07 |
| Cc1ccc(S(=O)(=O)N(Cc2ccccc2Cl)c2ccc(Br)cc2C(=O)c2ccccc2)cc1 | > 5.95 | pIC50 (FFLUC_HILL_SLOPE 4.75, FFLUC_R_SQUARED 0.66, PBLUC_HILL_SLOPE 8.83, PBLUC_R_SQUARED 0.156, read-out: LUCIFERASE INFECTION ASSAY - IC50): 5.27 |
| Clc1cccc(-c2cn3c(-c4ccncc4)cnc3cn2)c1 | > 10.8 | pIC50 (FFLUC_HILL_SLOPE 4.91, FFLUC_R_SQUARED 0.112, HEPG2TOX_HILL_SLOPE 0.251, HEPG2TOX_R_SQUARED 0.199, PBLUC_HILL_SLOPE 3.54, PBLUC_R_SQUARED 0.544, read-out: LUCIFERASE INFECTION ASSAY - IC50): 5.20 |
| COc1cc(/C=C(/C(=O)Nc2ccc(Cl)cc2)c2nc3ccccc3s2)ccc1OC(F)F | 3.33 | pIC50 (FFLUC_HILL_SLOPE 4.93, FFLUC_R_SQUARED 0.384, HEPG2TOX_HILL_SLOPE 14.8, HEPG2TOX_R_SQUARED 0.909, PBLUC_HILL_SLOPE 5.39, PBLUC_R_SQUARED 0.576, read-out: LUCIFERASE INFECTION ASSAY - IC50): 5.66 |
| COCCNc1nc2cnc(-c3ccc4ccccc4c3)cc2n1C | > 10 | pIC50 (FFLUC_HILL_SLOPE 5.54, FFLUC_R_SQUARED 0.844, PBLUC_HILL_SLOPE 0.43, PBLUC_R_SQUARED 0.895, read-out: LUCIFERASE INFECTION ASSAY - IC50): 6.89 |
| Cc1ccc(-c2oc(NC(=O)c3cncc(Br)c3)c(C#N)c2-c2ccc(C)cc2)cc1 | 9.82 | pIC50 (FFLUC_HILL_SLOPE 4.83, FFLUC_R_SQUARED 0.721, HEPG2TOX_HILL_SLOPE 9.42, HEPG2TOX_R_SQUARED 0.907, PBLUC_HILL_SLOPE 30.3, PBLUC_R_SQUARED 0.463, read-out: LUCIFERASE INFECTION ASSAY - IC50): 5.04 |
| O=C(CSc1ccccc1C(=O)N(Cc1ccco1)Cc1cccs1)NC12CC3CC(CC(C3)C1)C2 | 7.68 | pIC50 (FFLUC_HILL_SLOPE 5.22, FFLUC_R_SQUARED 0.381, HEPG2TOX_HILL_SLOPE 38.7, HEPG2TOX_R_SQUARED 0.813, PBLUC_HILL_SLOPE 3.47, PBLUC_R_SQUARED 0.525, read-out: LUCIFERASE INFECTION ASSAY - IC50): 5.39 |
| COC(=O)c1cc(CSc2nnc(-c3ccc(C)cc3)c(-c3ccc(C)cc3)n2)oc1C | > 10 | pIC50 (FFLUC_HILL_SLOPE 4.52, FFLUC_R_SQUARED 0.588, read-out: LUCIFERASE INFECTION ASSAY - IC50): < 5.00 |
| FC(F)(F)c1cnc(-n2cccc2/C=N/Nc2nc3ccccc3nc2C(F)(F)F)c(Cl)c1 | > 6.81 | pIC50 (FFLUC_HILL_SLOPE 4.66, FFLUC_R_SQUARED 0.46, HEPG2TOX_HILL_SLOPE 16.5, HEPG2TOX_R_SQUARED 0.459, PBLUC_HILL_SLOPE 3.99, PBLUC_R_SQUARED 0.83, read-out: LUCIFERASE INFECTION ASSAY - IC50): 5.38 |
| NS(=O)(=O)c1ccc(CCNc2nc(-c3ccc(Cl)cc3)nc3sc4c(c23)CCC4)cc1 | > 10 | pIC50 (FFLUC_HILL_SLOPE 5.22, FFLUC_R_SQUARED 0.196, PBLUC_HILL_SLOPE 2.11, PBLUC_R_SQUARED 0.629, read-out: LUCIFERASE INFECTION ASSAY - IC50): 5.15 |
| COC(=O)c1ccccc1N1C(=O)C=CC1=O | 5.93 | pIC50 (FFLUC_HILL_SLOPE 4.6, FFLUC_R_SQUARED 0.0459, HEPG2TOX_HILL_SLOPE 7.42, HEPG2TOX_R_SQUARED 0.806, PBLUC_HILL_SLOPE 7.78, PBLUC_R_SQUARED 0.766, read-out: LUCIFERASE INFECTION ASSAY - IC50): 5.35 |
| CNc1nc2cnc(-c3cccc(Oc4ccccc4)c3)cc2n1-c1cccc(F)c1 | > 10 | pIC50 (FFLUC_HILL_SLOPE 5.28, FFLUC_R_SQUARED 0.776, PBLUC_HILL_SLOPE 4.98, PBLUC_R_SQUARED 0.188, read-out: LUCIFERASE INFECTION ASSAY - IC50): 5.10 |
| O=C(Nc1cc(S(=O)(=O)N2CCCC2)ccc1O)c1sccc1-n1cccc1 | 3.25 | pIC50 (FFLUC_HILL_SLOPE 4.58, FFLUC_R_SQUARED 0.706, PBLUC_HILL_SLOPE 1.57, PBLUC_R_SQUARED 0.879, read-out: LUCIFERASE INFECTION ASSAY - IC50): 6.10 |
| Cc1onc(-c2c(Cl)cccc2Cl)c1C(=O)Nc1ccccc1SCc1noc(-c2cccs2)n1 | > 6.07 | pIC50 (FFLUC_HILL_SLOPE 4.47, FFLUC_R_SQUARED 0.309, read-out: LUCIFERASE INFECTION ASSAY - IC50): < 5.22 |
| O=[N+]([O-])c1cc2c(c(Cn3c(COc4ccc(Cl)cc4Cl)nc4ccccc43)c1)OCOC2 | 7.34 | pIC50 (FFLUC_HILL_SLOPE 4.75, FFLUC_R_SQUARED 0.0792, PBLUC_HILL_SLOPE 3.98, PBLUC_R_SQUARED 0.767, read-out: LUCIFERASE INFECTION ASSAY - IC50): 5.37 |
| N#C/C(=C\Nc1cc(C(F)(F)F)cc(C(F)(F)F)c1)S(=O)(=O)c1ccccc1Cl | > 7.26 | pIC50 (FFLUC_HILL_SLOPE 5.48, FFLUC_R_SQUARED 0.621, HEPG2TOX_HILL_SLOPE 2.18, HEPG2TOX_R_SQUARED 0.937, read-out: LUCIFERASE INFECTION ASSAY - IC50): < 5.14 |
| CCCOc1cc2cc(C(=O)c3ccccc3O)cnc2cc1OCCC | 4.78 | pIC50 (FFLUC_HILL_SLOPE 5.56, FFLUC_R_SQUARED 0.125, HEPG2TOX_HILL_SLOPE 2.18, HEPG2TOX_R_SQUARED 0.51, PBLUC_HILL_SLOPE 8.83, PBLUC_R_SQUARED 0.576, read-out: LUCIFERASE INFECTION ASSAY - IC50): 5.43 |
| Cc1noc(C)c1NC(=O)Nc1cc(C(F)(F)F)cc(C(F)(F)F)c1 | > 8.99 | pIC50 (FFLUC_HILL_SLOPE 4.67, FFLUC_R_SQUARED 0.129, HEPG2TOX_HILL_SLOPE 8.81, HEPG2TOX_R_SQUARED 0.655, PBLUC_HILL_SLOPE 1.82, PBLUC_R_SQUARED 0.142, read-out: LUCIFERASE INFECTION ASSAY - IC50): 5.32 |
| CC(C)(C)c1ccc(C2NCC(c3ccc(Cl)cc3Cl)c3c2[nH]c2ccccc32)cc1 (stereo not drawn) | 4.09 | pIC50 (FFLUC_HILL_SLOPE 4.79, FFLUC_R_SQUARED 0.608, HEPG2TOX_HILL_SLOPE 0.722, HEPG2TOX_R_SQUARED 0.602, PBLUC_HILL_SLOPE 10.9, PBLUC_R_SQUARED 0.683, read-out: LUCIFERASE INFECTION ASSAY - IC50): 5.48 |
| COc1ccc(CCNc2nc(CN3CCCC3)nc3sc(C)c(C)c23)cc1 | > 10 | pIC50 (FFLUC_HILL_SLOPE 4.5, FFLUC_R_SQUARED 0.668, PBLUC_HILL_SLOPE 16.9, PBLUC_R_SQUARED 0.0613, read-out: LUCIFERASE INFECTION ASSAY - IC50): 5.01 |
| Cc1cc(C(C)(C)C)cc(S(=O)(=O)Nc2ccc(C(=O)OC(C)C(=O)c3cc(C)n(-c4ccccc4)c3C)cc2)c1C (stereo not drawn) | > 10 | pIC50 (FFLUC_HILL_SLOPE 4.56, FFLUC_R_SQUARED 0.633, PBLUC_HILL_SLOPE 9.36, PBLUC_R_SQUARED 0.441, read-out: LUCIFERASE INFECTION ASSAY - IC50): 5.05 |
| CSc1sc(C#N)c2c1/C(=N/OC(=O)c1ccc(Cl)cc1)CCC2 | > 8.76 | pIC50 (FFLUC_HILL_SLOPE 4.66, FFLUC_R_SQUARED 0.795, read-out: LUCIFERASE INFECTION ASSAY - IC50): < 5.06 |
| O=S(=O)(Nc1ccc(OC(F)(F)F)cc1)c1ccc(S(=O)(=O)c2ncc(C(F)(F)F)cc2Cl)s1 | > 5.82 | pIC50 (FFLUC_HILL_SLOPE 4.61, FFLUC_R_SQUARED 0.168, read-out: LUCIFERASE INFECTION ASSAY - IC50): < 5.24 |
| COc1ccc2c(c1)c(CC(=O)Nc1cccc(S(=O)(=O)N3CCCC3)c1)c(C)n2C(=O)c1ccc(Cl)cc1 | > 10 | pIC50 (FFLUC_HILL_SLOPE 4.55, FFLUC_R_SQUARED 0.0972, read-out: LUCIFERASE INFECTION ASSAY - IC50): < 5.00 |
| CC(C)NC(=O)c1c(NC(=O)c2ccc(C(F)(F)F)cc2)nc2ccccn12 | 1.46 | pIC50 (FFLUC_HILL_SLOPE 4.65, FFLUC_R_SQUARED 0.42, HEPG2TOX_HILL_SLOPE 0.706, HEPG2TOX_R_SQUARED 0.931, PBLUC_HILL_SLOPE 2.98, PBLUC_R_SQUARED 0.635, read-out: LUCIFERASE INFECTION ASSAY - IC50): 6.16 |
| Cc1cccc(NC(=O)CN2C(=O)/C(=C(/C#N)c3nc4ccccc4[nH]3)c3ccccc32)c1 | > 10 | pIC50 (FFLUC_HILL_SLOPE 4.46, FFLUC_R_SQUARED 0.474, HEPG2TOX_HILL_SLOPE 6.44, HEPG2TOX_R_SQUARED 0.532, PBLUC_HILL_SLOPE 2.02, PBLUC_R_SQUARED 0.59, read-out: LUCIFERASE INFECTION ASSAY - IC50): 5.25 |
| Cc1cc(O)c(C(=O)/C=C/c2cn(-c3ccccc3C)nc2-c2ccccc2)c(=O)o1 | > 10 | pIC50 (FFLUC_HILL_SLOPE 4.53, FFLUC_R_SQUARED 0.503, PBLUC_HILL_SLOPE 0.894, PBLUC_R_SQUARED 0.655, read-out: LUCIFERASE INFECTION ASSAY - IC50): 5.22 |
| Cc1c(-c2nc3ccccc3[nH]2)c(NC(=O)C(C)C)n(Cc2ccccc2)c1C | 5.02 | pIC50 (FFLUC_HILL_SLOPE 4.87, FFLUC_R_SQUARED 0.116, PBLUC_HILL_SLOPE 2.35, PBLUC_R_SQUARED 0.356, read-out: LUCIFERASE INFECTION ASSAY - IC50): 5.71 |
| Cc1ccc(-c2nc(NC(=O)c3ccc4c(=O)[nH]c(=O)n(C)c4n3)sc2-c2ccc(C)cc2)cc1 | 4.58 | pIC50 (FFLUC_HILL_SLOPE 5.14, FFLUC_R_SQUARED 0.303, PBLUC_HILL_SLOPE 8.87, PBLUC_R_SQUARED 0.194, read-out: LUCIFERASE INFECTION ASSAY - IC50): 5.45 |
